# Literature values in US11752221B2, “Brush-arm star polymer imaging agents and uses thereof” (priority 2017, dated 2023).
# “And” between values parts separate entries of the source, which are not always exact repeats. Equal values may be shown once. Read-outs that look alike come from different tables or passages of the source.
# Key:
# [1] = earlier studies
# [2] = 0.2 mM nitroxide, 4.0 mM Asc
# subcutaneous C26 tumors = settings: 0.23 mmol Gd/kg iv dose, after 4 hours
Structure (SMILES),r1 (per-chex for chex polymers) [1] [mM⁻¹ s⁻¹],"Initial kinetics (<1 h) k × 10^4 ([2]; 0.0 mM GSH, data used IPH)","Initial kinetics (<1 h) k′ × 10^4 ([2]; 0.0 mM GSH, data used IPH)","Initial kinetics Avg k × 10^4 ([2]; 0.0 mM GSH, data used IPH) [M^−1 s^−1]","Initial kinetics (<1 h) k × 10^4 ([2]; 0.0 mM GSH, data used PH)","Initial kinetics (<1 h) k′ × 10^4 ([2]; 0.0 mM GSH, data used PH)","Initial kinetics Avg k × 10^4 ([2]; 0.0 mM GSH, data used PH) [M^−1 s^−1]","Late kinetics (>1 h) k × 10^4 ([2]; 0.0 mM GSH, data used PH) [M^−1 s^−1]","Late kinetics (>1 h) k′ × 10^4 ([2]; 0.0 mM GSH, data used PH) [s^−1]","Initial kinetics (<1 h) k × 10^4 ([2]; 5.0 mM GSH, data used IPH)","Initial kinetics (<1 h) k′ × 10^4 ([2]; 5.0 mM GSH, data used IPH)","Initial kinetics Avg k × 10^4 ([2]; 5.0 mM GSH, data used IPH) [M^−1 s^−1]","Initial kinetics (<1 h) k × 10^4 ([2]; 5.0 mM GSH, data used PH)","Initial kinetics (<1 h) k′ × 10^4 ([2]; 5.0 mM GSH, data used PH)","Initial kinetics Avg k × 10^4 ([2]; 5.0 mM GSH, data used PH) [M^−1 s^−1]",contrast enhancement of tumor (subcutaneous C26 tumors)
"CC1(C)CC(C(=O)O)C(C)(C)N1[O] (stereo not shown) [3-CP, 3-carboxy-2,2,5,5-tetramethyl-1-pyrrolidinyloxy]",0.14,636.8 M^−1 s^−1 and 624.5 M^−1 s^−1 and 614.8 M^−1 s^−1,2.547 s^−1 and 2.498 s^−1 and 2.459 s^−1,625 ± 22,636.0 M^−1 s^−1 and 599.0 M^−1 s^−1 and 597.3 M^−1 s^−1,2.504 s^−1 and 2.396 s^−1 and 2.389 s^−1,611 ± 44,295,1.18,608.8 M^−1 s^−1 and 609.6 M^−1 s^−1 and 605.6 M^−1 s^−1,2.435 s^−1 and 2.438 s^−1 and 2.423 s^−1,608.0 ± 4.2,590.3 M^−1 s^−1 and 602.4 M^−1 s^−1 and 615.2 M^−1 s^−1,2.361 s^−1 and 2.410 s^−1 and 2.461 s^−1,602.6 ± 25,–
O=C([O-])CN(CCN(CC(=O)[O-])CC(=O)O)CCN(CC(=O)[O-])CC(=O)O.[Gd+3] [Gd-DTPA],–,–,–,–,–,–,–,–,–,–,–,–,–,–,–,negligible contrast enhancement
